Data on eight molecules can be found in patent US20120184020A1, “ENGINEERED MICROORGANISMS WITH ENHANCED FERMENTATION ACTIVITY” (Verdezyne, Inc., priority 2009, published 2012).

B1: Bacillus subtilis: xylose isomerase from donor organism Bacillus subtilis (protein, UniProt P0CI80 1-445, looked up)
Xylose isomerase: MAQSHSSSINYFGSANKVVYEGKDSTNPLAFKYYNPQEVIGGKTLKEHLRFSIAYWHTFTADGTDVFGAATMQRPWDHYKGMDLAKMRVEAAFEMFEKLDAPFFAFHDRDIAPEGSTLKETNQNLDMIMGMIKDYMRNSGVKLLWNTANMFTNPRFVHGAATSCNADVFAYAAAQVKKGLETAKELGAENYVFWGGREGYETLLNTDLKFELDNLARFMHMAVDYAKEIGYTGQFLIEPKPKEPTTHQYDTDAATTIAFLKQYGLDNHFKLNLEANHATLAGHTFEHELRMARVHGLLGSVDANQGHPLLGWDTDEFPTDLYSTTLAMYEILQNGGLGSGGLNFDAKVRRSSFEPDDLIYAHIAGMDAFARGLKVAHKLIEDRVFEDVIQHRYRSFTEGIGLEIIEGRANFHTLEQYALNHKSIKNESGRQEKLKAILNQYILEV
B2: Clostridium thermosulfurogenes: xylose isomerase from donor organism Clostridium thermosulfurogenes (protein, UniProt P19148 1-439, looked up)
Xylose isomerase: MNKYFENVSKIKYEGPKSNNPYSFKFYNPEEVIDGKTMEEHLRFSIAYWHTFTADGTDQFGKATMQRPWNHYTDPMDIAKARVEAAFEFFDKINAPYFCFHDRDIAPEGDTLRETNKNLDTIVAMIKDYLKTSKTKVLWGTANLFSNPRFVHGASTSCNADVFAYSAAQVKKALEITKELGGENYVFWGGREGYETLLNTDMEFELDNFARFLHMAVDYAKEIGFEGQFLIEPKPKEPTKHQYDFDVANVLAFLRKYDLDKYFKVNIEANHATLAFHDFQHELRYARINGVLGSIDANTGDMLLGWDTDQFPTDIRMTTLAMYEVIKMGGFDKGGLNFDAKVRRASFEPEDLFLGHIAGMDAFAKGFKVAYKLVKDRVFDKFIEERYASYKDGIGADIVSGKADFRSLEKYALERSQIVNKSGRQELLESILNQYLFAE
B3: Bacillus licheniformis: xylose isomerase from donor organism Bacillus licheniformis (protein, UniProt P77832 1-448, looked up)
Xylose isomerase: MFFRNIGMIEYEGADSENPYAFKYYNPDEFVGGKTMKEHLRFAVAYWHTFDADGKDPFGDGTMFRAWNRLTHPLDKAKARAEAAFEFFEKLGVPYFCFHDVDIVDEGATLRETFTYLDQMSSFLKEMMETSHVQLLWNTANMFTHPRYVHGAATSCNADVYAYAAAKVKKGLDIAKELGAENYVFWGGREGYETLLNTDMKLELENLSSFYRMAVEYAREIGFDGQFLIEPKPKEPTKHQYDFDAATTIAFLETYGLKDHFKLNLEANHATLAGHTFEHELRVAALHDMLGSIDANQGDLLLGWDTDEFPTDLYSAVLAMYEILKAGGFKTGGINFDAKVRRPSFADEDLFHAHIAGMDTYAVGLKVASRLLEDKALDQVIEERYESYTKGIGLEIKEGRTDLKKLAAYALENDHIENQSGRQERLKATVNRYLLNALREAPAGKETH

This assay concerns engineered yeast (S. cerevisiae). The experiment in a line: Heterologous xylose isomerase expression in yeast (active yes/no). It counts as cell-based. The conditions noted are these: xylose isomerase of donor organism expressed in engineered yeast (S. cerevisiae).
“Bacteroides thetaiotaomicron: xylose isomerase from donor organism Bacteroides thetaiotaomicron”: the “Active? (yes/no)” value is “Yes”.

On to “Thermus thermophilus: xylose isomerase from donor organism Thermus thermophilus”, for which the “Active? (yes/no)” value was “Yes”.

Take “Streptomyces diastaticus subsp diastaticus: xylose isomerase from donor organism Streptomyces diastaticus subsp diastaticus”: the “Active? (yes/no)” value is reported as “No”.

Take “Streptomyces rubiginosus: xylose isomerase from donor organism Streptomyces rubiginosus”: the “Active? (yes/no)” value is on record as “No”.

For “Actinoplanes missouriensis: xylose isomerase from donor organism Actinoplanes missouriensis”, the “Active? (yes/no)” value was “No”.

B1: the “Active? (yes/no)” value is “No”.

As to B2, the “Active? (yes/no)” value is “No”.

Regarding B3, the “Active? (yes/no)” value was “No”.
